Results from patent US20260042753A1 (Merck Patent GmbH, priority 2019, published 2026).

Tests used:
c-Kit(V654A) = c-Kit(V654A) (Homo sapiens, UniProt P10721, V654A); assay: c-Kit(V654A) assay; assay type: biochemical; settings: Table 1; 200 μM ATP
Outline: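 Radiometric filter-binding read-out: after 3% phosphoric acid stop, peptide-incorporated 33P on filtermat scintillation-counted. Enzyme: human c-Kit V654A, residues 544–end, N-terminal GST fusion.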

[1] = biological target: mutant cKIT (560-576 and V654A) in GIST430/654 cell line (Homo sapiens (Human), UniProt P10721, DEL560-576/V654A); assay: Cellular testing of cKIT mutant inhibitors: phospho-Y307-cKIT Luminex assay in GIST430/654 cells; assay type: cell-based; settings: Table 1; cKIT autophosphorylation, compounds 45 min; read-out: GIST 430/654 IC50
Outline: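 Autophosphorylation of mutant cKIT at Y307 was quantified by a Luminex bead sandwich assay (total-cKIT capture, phosphospecific detection) after 45 min compound exposure in GIST430/654 cells, cultured in medium containing 100 nM imatinib. Signals were normalised to solvent (0.3% DMSO) controls and dose-response curves fitted for IC50.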

Sequence of mutant cKIT (560-576 and V654A) in GIST430/654 cell line (P10721 other isoform, or with tags, fused parts or gaps V654A/del 1-25/del 560-576 limits assumed): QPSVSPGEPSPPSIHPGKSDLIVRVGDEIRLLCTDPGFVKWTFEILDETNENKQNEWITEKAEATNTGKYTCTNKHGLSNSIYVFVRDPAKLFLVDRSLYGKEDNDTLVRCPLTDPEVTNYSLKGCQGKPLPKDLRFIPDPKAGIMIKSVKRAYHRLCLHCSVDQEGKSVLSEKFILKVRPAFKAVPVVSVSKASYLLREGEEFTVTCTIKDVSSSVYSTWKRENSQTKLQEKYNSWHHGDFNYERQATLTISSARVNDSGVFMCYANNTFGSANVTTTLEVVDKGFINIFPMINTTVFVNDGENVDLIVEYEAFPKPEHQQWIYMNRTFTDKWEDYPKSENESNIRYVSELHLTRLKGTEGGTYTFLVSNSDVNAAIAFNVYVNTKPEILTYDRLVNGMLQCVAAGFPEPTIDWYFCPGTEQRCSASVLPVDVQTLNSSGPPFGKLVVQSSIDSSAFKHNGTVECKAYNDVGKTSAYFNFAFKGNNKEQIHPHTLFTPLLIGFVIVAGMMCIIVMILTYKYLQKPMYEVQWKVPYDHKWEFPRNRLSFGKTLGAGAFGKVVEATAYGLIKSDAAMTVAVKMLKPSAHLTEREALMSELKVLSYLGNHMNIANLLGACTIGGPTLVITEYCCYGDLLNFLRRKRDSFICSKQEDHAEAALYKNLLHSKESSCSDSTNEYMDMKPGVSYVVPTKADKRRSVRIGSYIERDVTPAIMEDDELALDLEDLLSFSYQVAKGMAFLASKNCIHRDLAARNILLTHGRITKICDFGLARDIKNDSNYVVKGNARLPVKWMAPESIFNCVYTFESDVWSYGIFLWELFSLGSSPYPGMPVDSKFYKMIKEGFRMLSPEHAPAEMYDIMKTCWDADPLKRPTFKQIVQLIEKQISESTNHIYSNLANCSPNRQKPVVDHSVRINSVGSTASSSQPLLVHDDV

SMILES | IC50 (c-Kit(V654A)) [nM] | IC50 [1] [nM]
COCCOc1cc2[nH]nc(-c3cc(-c4ccc(C(=O)N5CCC(N6CCOCC6)C5)cc4)no3)c2cc1F (centres unmarked) [A153, 5-fluoro-6-(2-methoxyethoxy)-3-(3-{f4-[3-(morpholin-4-yl)pyrrolidine-1l-carbonyl]phenyl}-1,2-oxazol-5-yl)-1H-indazole] | 0.83 | 46
COCCOc1cc2[nH]nc(-c3cc(-c4ccc(C(=O)N5CC[C@@H]5CS(C)(=O)=O)cc4)no3)c2cc1F [A154, 5-fluoro-3-(3-{4-[(2R)-2-(methanesulfonylmethyl)azetidine-1-carbonyl]phenyl}-1,2-oxazol-5-yl)-6-(2-methoxyethoxy)-1H-indazole] | 0.89 | 110
COCCOc1cc2[nH]nc(-c3cc(-c4ccc(C(=O)N5CCOCC56COC6)cc4)no3)c2cc1F [A155, 5-(4-{5-[5-fluoro-6-(2-methoxyethoxy)-1H-indazol-3-yl]-1,2-oxazol-3-yl}benzoyl)-2,8-dioxa-5-azaspiro[3.5]nonane] | 1.6 | 60
COCCOc1cc2[nH]nc(-c3cc(-c4ccc(C(=O)NCc5nc6ccccc6[nH]5)cc4)no3)c2cc1F [A156, N-[(1H-1,3-benzodiazol-2-yl)methyl]-4-{5-[5-fluoro-6-(2-methoxyethoxy)-1H-indazol-3-yl]-1,2-oxazol-3-yl}benzamide] | 5.2 | 350
COCCOc1cc2[nH]nc(-c3cc(-c4ccc(C(=O)N5CCC6(CCOC6)C5)cc4)no3)c2cc1F (centres unmarked) [A157, 7-(4-{5-[5-fluoro-6-(2-methoxyethoxy)-1H-indazol-3-yl]-1,2-oxazol-3-yl}benzoyl)-2-oxa-7-azaspiro[4.4]nonane] | 0.44 | 23
COCCOc1cc2[nH]nc(-c3cc(-c4ccc(C(=O)N5CCC6(COC6)C5)cc4)no3)c2cc1F [A158, 5-fluoro-6-(2-methoxyethoxy)-3-[3-(4-{2-oxa-6-azaspiro[3.4]octane-6-carbonyl}phenyl)-1,2-oxazol-5-yl]-1H-indazole] | 0.46 | 32
COCCOc1cc2[nH]nc(-c3cc(-c4ccc(C(=O)N5CCC6(CCOCC6)C5)cc4)no3)c2cc1F [A159, 2-(4-{5-[5-fluoro-6-(2-methoxyethoxy)-1H-indazol-3-yl]-1,2-oxazol-3-yl}benzoyl)-8-oxa-2-azaspiro[4.5]decane] | 0.29 | 21
COCCOc1cc2[nH]nc(-c3cc(-c4ccc(C(=O)N5CCC6(CN(C)C6)C5)cc4)no3)c2cc1F [A160, 5-fluoro-6-(2-methoxyethoxy)-3-[3-(4-{2-methyl-2,6-diazaspiro[3.4]octane-6-carbonyl}phenyl)-1,2-oxazol-5-yl]-1H-indazole] | 2.5 | 170
COCCOc1cc2[nH]nc(-c3cc(-c4ccc(C(=O)N5CC6CC(C5)O6)cc4)no3)c2cc1F [A161, 5-fluoro-6-(2-methoxyethoxy)-3-[3-(4-{6-oxa-3-azabicyclo[3.1.1]heptane-3-carbonyl}phenyl)-1,2-oxazol-5-yl]-1H-indazole] | 0.45 | 40
COCCOc1cc2[nH]nc(-c3cc(-c4ccc(C(=O)N5C[C@@H]6C[C@H]5CO6)cc4)no3)c2cc1F [A162, 5-fluoro-6-(2-methoxyethoxy)-3-(3-{4-[(1S,4S)-2-oxa-5-azabicyclo[2.2.1]heptane-5-carbonyl]phenyl}-1,2-oxazol-5-yl)-1H-indazole] | 0.65 | 44
COCCOc1cc2[nH]nc(-c3cc(-c4ccc(C(=O)N5C[C@H]6C[C@@H]5CO6)cc4)no3)c2cc1F [A163, 5-fluoro-6-(2-methoxyethoxy)-3-(3-{4-[(1R,4R)-2-oxa-5-azabicyclo[2.2.1]heptane-5-carbonyl]phenyl}-1,2-oxazol-5-yl)-1H-indazole] | 0.54 | 38
COCCOc1cc2[nH]nc(-c3cc(-c4ccc(C(=O)NCC(C)(C)N5CCOCC5)cc4)no3)c2cc1F [A164, 4-{5-[5-fluoro-6-(2-methoxyethoxy)-1H-indazol-3-yl]-1,2-oxazol-3-yl}-N-[2-methyl-2-(morpholin-4-yl)propyl]benzamide] | 1.5 | 130

Results, then the compound that gave them:

IC50 (c-Kit(V654A)) [nM] | IC50 [1] [nM] | SMILES
0.53 | 27 | COCCOc1cc2[nH]nc(-c3cc(-c4ccc(C(=O)N5CC6(CCOCC6)C5)cc4)no3)c2cc1F [A165, 2-(4-{5-[5-fluoro-6-(2-methoxyethoxy)-1H-indazol-3-yl]-1,2-oxazol-3-yl}benzoyl)-7-oxa-2-azaspiro[3.5]nonane]
0.96 | 87 | COCCOc1cc2[nH]nc(-c3cc(-c4ccc(C(=O)N5CC(c6nc(C)no6)C5)cc4)no3)c2cc1F [A166, 5-fluoro-6-(2-methoxyethoxy)-3-(3-{4-[3-(3-methyl-1,2,4-oxadiazol-5-yl)azetidine-1-carbonyl]phenyl}-1,2-oxazol-5-yl)-1H-indazole]
0.4 | 74 | COCCOc1cc2[nH]nc(-c3cc(-c4ccc(C(=O)N5CCN(C)CC5)cc4)no3)c2cc1Cl [A167, (4-{5-[5-chloro-6-(2-methoxy-ethoxy)-1H-indazol-3-yl]-isoxazol-3-yl}-phenyl)-(4-methyl-piperazin-1-yl)-methanone]
3.3 | 49 | COCCOc1cc2[nH]nc(-c3cc(-c4ccc(C(=O)N5CC(N6CCOCC6)C5)c(F)c4)no3)c2cc1F [A168, (2-fluoro-4-{5-[5-fluoro-6-(2-methoxy-ethoxy)-1H-indazol-3-yl]-isoxazol-3-yl}-phenyl)-(3-morpholin-4-yl-azetidin-1-yl)-methanone]
1.2 | 44 | COCCOc1cc2[nH]nc(-c3cc(-c4ccc(C(=O)N5CCC56COC6)c(C)c4)no3)c2cc1F [A169, (4-{5-[5-fluoro-6-(2-methoxy-ethoxy)-1H-indazol-3-yl]-isoxazol-3-yl}-2-methyl-phenyl)-(6-oxa-1-aza-spiro[3.3]hept-1-yl)-methanone]
2.6 | 120 | COCCOc1cc2[nH]nc(-c3cc(-c4ccc(C(=O)N5CCC56COC6)c(F)c4)no3)c2cc1F [A170, (2-fluoro-4-{5-[5-fluoro-6-(2-methoxy-ethoxy)-1H-indazol-3-yl]-isoxazol-3-yl}-phenyl)-(6-oxa-1-aza-spiro[3.3]hept-1-yl)-methanone]
1.4 | 63 | COCCOc1cc2[nH]nc(-c3cc(-c4ccc(C(=O)N5CC(N6CCOCC6)C5)c(C)c4)no3)c2cc1F [A171, (4-{5-[5-fluoro-6-(2-methoxy-ethoxy)-1H-indazol-3-yl]-isoxazol-3-yl}-2-methyl-phenyl)-(3-morpholin-4-yl-azetidin-1-yl)-methanone]
0.89 | 54 | COCCOc1cc2[nH]nc(-c3cc(-c4ccc(C(=O)N5CC(c6ccncn6)C5)cc4)no3)c2cc1F [A172, 5-fluoro-6-(2-methoxyethoxy)-3-(3-{4-[3-(pyrimidin-4-yl)azetidine-1-carbonyl]phenyl}-1,2-oxazol-5-yl)-1H-indazole]
1.1 | 30 | COCCOc1cc2[nH]nc(-c3cc(-c4ccc(C(=O)N5CC(c6ccnc(C)n6)C5)cc4)no3)c2cc1F [A173, 5-fluoro-6-(2-methoxyethoxy)-3-(3-{4-[3-(2-methylpyrimidin-4-yl)azetidine-1-carbonyl]phenyl}-1,2-oxazol-5-yl)-1H-indazole]
1.3 | 35 | COCCOc1cc2[nH]nc(-c3cc(-c4ccc(C(=O)N5CCN(C6COC6)CC5C)cc4)no3)c2cc1F (centres unmarked) [A174, 5-fluoro-6-(2-methoxyethoxy)-3-(3-{4-[2-methyl-4-(oxetan-3-yl)piperazine-1-carbonyl]phenyl}-1,2-oxazol-5-yl)-1H-indazole]
0.86 | 43 | COCCOc1cc2[nH]nc(-c3cc(-c4ccc(C(=O)N5CCN(C6CCOC6)CC5)cc4)no3)c2cc1F (centres unmarked) [A175, 5-fluoro-6-(2-methoxyethoxy)-3-(3-{4-[4-(oxolan-3-yl)piperazine-1-carbonyl]phenyl}-1,2-oxazol-5-yl)-1H-indazole]
2.6 | 320 | COCCOc1cc2[nH]nc(-c3cc(-c4ccc(C(=O)N5CCC6(CC5)CN(C)C6)cc4)no3)c2cc1F [A176, 7-(4-{5-[5-fluoro-6-(2-methoxyethoxy)-1H-indazol-3-yl]-1,2-oxazol-3-yl}benzoyl)-2-methyl-2,7-diazaspiro[3.5]nonane]
1 | 65 | COCCOc1cc2[nH]nc(-c3cc(-c4ccc(C(=O)N5CC(N6CCCCC6)C5)cc4)no3)c2cc1F [A177, 5-fluoro-6-(2-methoxyethoxy)-3-(3-{4-[3-(piperidin-1-yl)azetidine-1-carbonyl]phenyl}-1,2-oxazol-5-yl)-1H-indazole]
1.1 | 62 | COCCOc1cc2[nH]nc(-c3cc(-c4ccc(C(=O)N5CC(N6CCCC6)C5)cc4)no3)c2cc1F [A178, 5-fluoro-6-(2-methoxyethoxy)-3-(3-{4-[3-(pyrrolidin-1-yl)azetidine-1-carbonyl]phenyl}-1,2-oxazol-5-yl)-1H-indazole]
0.59 | 85 | COCCOc1cc2[nH]nc(-c3cc(-c4ccc(C(=O)N5CCN(CC6CC6)CC5)cc4)no3)c2cc1F [A179, 3-(3-{4-[4-(cyclopropylmethyl)piperazine-1-carbonyl]phenyl}-1,2-oxazol-5-yl)-5-fluoro-6-(2-methoxyethoxy)-1H-indazole]
2 | 66 | COCCOc1cc2[nH]nc(-c3cc(-c4ccc(C(=O)N5CCO[C@H](C)C5)cc4)no3)c2cc1F [A180, 5-fluoro-6-(2-methoxyethoxy)-3-(3-{4-[(2R)-2-methylmorpholine-4-carbonyl]phenyl}-1,2-oxazol-5-yl)-1H-indazole]
